Some results are limits rather than exact numbers.

What is called IC50 is the concentration needed to halve the response being measured.

The nature of assay [1]: 3-HIB assay in vitro, direct MS assay of conditioned media. Format: cell-based, human. To be noted: Homo sapiens, 24 h, GM00371 cells, read-out: 3HIB INHIBITION IC50 (μM) MEAN GM00371 cells Direct MS Assay. As to the method: Cell Plating: Cells (Coriell Institute GM00371 cells) were plated (96-well clear bottom sterile plate; Greiner 655098) at 10,000 cells/0.1 mL in Eagle's minimum essential medium (EMEM)/15% FBS (Gibco 16000-044) with a Combi dispenser in a cell culture hood and incubated at 37° C. and 5% CO2 overnight.
Compound Dilution: Compound were prepared as 33.3× intermediate dilution in DMSO in 96 well round polystyrene plates. For 30 μM final maximum start with 30 μL of 10 mM in DMSO. 10-12 1:3 serial dilutions were prepared from left to right (20 μL+40 μL DMSO). A 10× secondary dilution was prepare in EMEM by taking 7.5 μL 33.3× and transfer to replicate 96 well round polystyrene plates and then adding 242.5 μL EMEM A 1× final dilution in EMEM was prepared by taking 50 μL 10× dilution and transferring to replicate 96 well polypropylene assay block (Costar 3956) and adding 450 μL EMEM A control was prepared for maximal compound inhibition by taking 20 μL 10 mM Reference Compound A and adding 40 μL DMSO for a concentration of 3.3 mM To 7.5 μL of the 3.3 mM Reference Compound A solution and added 242.5 μL EMEM to make a 100 μM solution. The subsequent Reference Compound A solution was diluted with EMEM to achieve a final concentration of 10 μM. The structure of Reference Compound A is:
A control was prepared for maximal compound toxicity by taking 7.5 μL Reference Compound B and 242.5 μL EMEM to make […]. 50 μL of that 100 μM Reference Compound B solution was combined with 450 μL EMEM to achieve a concentration of 30 μM. The structure of Reference Compound B is
A DMSO Control was prepared by dilution 7.5 μL with 242.5 μL EMEM and taking 50 μL of the subsequent solution and diluting with 450 μL EMEM.
Compound Treatment: Media was aspirated from the cells and 100 μL of D-PBS (ThermoFisher 14190144) was added and then removed. 100 μL of diluted compound was added to the cells in the place and the cells were incubated at 37° C. and 5% CO2 for 24 hours.
Collection of Conditioned Media: For 3HIB MS detection: 20 μL conditioned media was removed from the cells and was transferred to a labeled replicate 96 well polypropylene assay plate (VWR 62408-946). And the plate was heat sealed and stored at −80° C.
3HIB Derivatization (Generalized SOP): The media collected for 3HIB MS detection was derivatized under the following conditions. Buffer: 0.1M 1-Ethyl-3-(3-dimethylaminopropyl)carbodiimide (EDC) dissolved in 0.1 M 2-(N-morpholino)ethanesulfonic acid ([…]) adjusted to pH 5.6. Buffer prep: weighed 10.6 g MES (Sigma #M-5287) per 500 mL HPLC grade H2O. Stored at 4° C.; 0.1M EDC: Weighed 1.971 g EDC (#E-1769) per 100 mL MES. Adjusted pH to 5.6 with ˜40 drops of 1N NaOH and stored at 4° C. Buffer has a short half-life should be used within two weeks.
Derivatization: To 20 μL sample was added 60 μL 5 uM 3HIB-4C13 internal standard followed by 20 μL EDC in MES and 100 μL MES. The plate was sealed and incubate at 50° C. for […] then centrifuged at 4000 rpm at 6° C. for 10 minutes. LC-MS analysis was then conducted and the data was processed using standard methods.

A further assay deals with T1, BCAT2 (Homo sapiens, UniProt O15382).
T1 sequence (O15382 28-392): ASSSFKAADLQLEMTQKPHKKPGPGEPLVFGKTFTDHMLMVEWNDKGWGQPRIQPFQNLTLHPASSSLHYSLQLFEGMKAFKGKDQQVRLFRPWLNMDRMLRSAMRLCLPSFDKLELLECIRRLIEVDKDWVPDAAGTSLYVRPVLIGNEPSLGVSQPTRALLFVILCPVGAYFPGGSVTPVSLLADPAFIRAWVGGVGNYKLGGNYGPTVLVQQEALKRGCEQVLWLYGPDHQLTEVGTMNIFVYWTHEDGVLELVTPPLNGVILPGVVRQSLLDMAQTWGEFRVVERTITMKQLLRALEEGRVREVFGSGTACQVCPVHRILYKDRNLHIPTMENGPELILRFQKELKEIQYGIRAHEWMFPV
Put plainly: BCAT2 enzyme inhibition (human). Format: biochemical. The method in brief: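 Cell-free coupled fluorescent assay: human BCATm converts branched-chain amino acids and α-ketoglutarate to L-glutamate, which L-glutamate oxidase and HRP link to resorufin formation from Amplex Red; activity taken as reduced glutamate signal.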

The test system of another assay is GM00371 cells. Put plainly: Viability assay (Cell titer glo) in the 3-HIB assay. Format: cell-based, human. To be noted: Homo sapiens, 24 h, read-out: 3HIB INHIBITION IC50 (μM) MEAN GM00371 cells Viablility Assay. The method in brief: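 GM00371 cells (10,000/well, EMEM/15% FBS) were exposed for 24 h at 37 °C to compounds in 1:3 serial dilution from 30 μM top concentration in EMEM. Reference Compound B at 30 μM served as maximal-toxicity control. Viability read as CellTiter-Glo luminescence.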
Background: Cellular ATP, detected with luciferase, serves as a proxy for viable cell number.

Take `CNC(=O)c1ccc2c(c1)nc(-c1ccccn1)n2[C@H]1CC[C@@H](NC(=O)c2ccc(C#N)s2)C1` [Compound 131]: the IC50 in assay [1] is at least 1 µM; at BCAT2, 0.5 to 1 µM; with GM00371 cells it was at least 1 µM.

For `CNC(=O)c1ccc2c(c1)nc(-c1ncccc1O)n2[C@H]1CCC[C@@H](NC(=O)c2ccc(Br)s2)C1` [Compound 152], the IC50 is 0.1 to 0.5 µM in assay [1], below 0.1 µM on BCAT2 and 0.1 to 0.5 µM in the assay with GM00371 cells.

Regarding `O=C(N[C@@H]1CCC[C@H](n2c(-c3ccccn3)nc3cc(Cl)ncc32)C1)c1ccc(Br)s1` [Compound 296], the results for the IC50 (in assay [1]; against BCAT2; with GM00371 cells) were 0.1 to 0.5 µM, below 0.1 µM and 0.5 to 1 µM, respectively.

Consider `CNC(=O)c1ccc2c(c1)nc(-c1ccccc1OC)n2[C@H]1CCC[C@@H](NC(=O)c2ccc(Br)s2)C1` [Compound 126], for which the IC50 in assay [1] was 0.1 to 0.5 µM; against BCAT2 it was below 0.1 µM; with GM00371 cells, at least 1 µM.

For the compound `CNC(=O)c1ccc2c(c1)nc(-c1c(O)cccc1F)n2[C@H]1CCC[C@@H](NC(=O)c2ccc(C#N)s2)C1` [Compound 172], the IC50 in assay [1] was 0.1 to 0.5 µM; against BCAT2 it was below 0.1 µM; in the assay with GM00371 cells, 0.1 to 0.5 µM.

As for `CNC(=O)c1ccc2c(c1)nc(-c1ccccc1OC)n2[C@H]1CCC[C@@H](NC(=O)c2ccc(C#N)s2)C1` [Compound 124], the figures for the IC50 (in assay [1]; against BCAT2; in the assay on GM00371 cells) were at least 1 µM, below 0.1 µM and at least 1 µM, respectively.

With `CNC(=O)c1ccc2c(c1)nc(-c1ccccn1)n2[C@@H]1CCC[C@H](NC(=O)c2ccc(C(F)(F)F)s2)C1` [Compound 113], the IC50 in assay [1] was at least 1 µM; at BCAT2, below 0.1 µM; in the assay on GM00371 cells, 0.5 to 1 µM.

`CNC(=O)c1ccc2c(c1)nc(-c1ccccn1)n2[C@@H]1CCC[C@H](NC(=O)c2cccc(Br)c2)C1` [Compound 116]: the IC50 in assay [1] is at least 1 µM; at BCAT2 it was above 1 µM; in the assay with GM00371 cells it was at least 1 µM.

For `CNC(=O)c1ccc2c(c1)nc(-c1c(O)cccc1F)n2[C@H]1CCC[C@@H](NC(=O)c2ccc(Cl)s2)C1` [Compound 177], the IC50 was below 0.1 µM in assay [1], below 0.1 µM on BCAT2 and 0.1 to 0.5 µM with GM00371 cells.

In the case of `CNC(=O)c1ccc2c(c1)nc(-c1ccccn1)n2[C@H]1CCC[C@@H](NC(=O)c2ccc(Cl)s2)C1` [Compound 141], the IC50 was at least 1 µM in assay [1], below 0.1 µM against BCAT2 and at least 1 µM with GM00371 cells.

Turning to `CNC(=O)c1ccc2c(c1)nc(-c1cccs1)n2[C@H]1CCC[C@@H](NC(=O)c2ccc(C#N)s2)C1` [Compound 181], the IC50 in assay [1] is at least 1 µM; on BCAT2, below 0.1 µM; in the assay with GM00371 cells it was at least 1 µM.

Take `CNC(=O)c1ccc2c(c1)nc(-c1ccc(F)cc1F)n2[C@H]1CCC[C@@H](NC(=O)c2ccc(Br)s2)C1` [Compound 176]: the IC50 in assay [1] is 0.1 to 0.5 µM; against BCAT2, below 0.1 µM; in the assay with GM00371 cells, 0.1 to 0.5 µM.

In the case of `N#Cc1ccc(C(=O)N[C@@H]2CCC[C@H](n3c(-c4ccccn4)nc4cc(CO)ccc43)C2)s1` [Compound 133], the IC50 in assay [1] is at least 1 µM; against BCAT2, 0.1 to 0.5 µM; in the assay on GM00371 cells, at least 1 µM.

As to `CNC(=O)c1ccc2c(c1)nc(-c1ncccc1C#N)n2[C@H]1CCC[C@@H](NC(=O)c2ccc(Cl)s2)C1` [Compound 192], the IC50 was 0.5 to 1 µM in assay [1], below 0.1 µM against BCAT2 and 0.5 to 1 µM in the assay with GM00371 cells.

On to `CNC(=O)c1ccc2c(c1)nc(-c1ncccc1C#N)n2[C@H]1CCC[C@@H](NC(=O)c2ccc(Br)s2)C1` [Compound 185], for which the results for the IC50 (in assay [1]; against BCAT2; in the assay on GM00371 cells) were 0.5 to 1 µM, below 0.1 µM and 0.5 to 1 µM, respectively.

In the case of `CNC(=O)c1ccc2c(c1)nc(-c1ccccc1NC(C)=O)n2[C@H]1CCC[C@@H](NC(=O)c2ccc(Br)s2)C1` [Compound 129], the IC50 is at least 1 µM in assay [1], 0.1 to 0.5 µM against BCAT2 and at least 1 µM with GM00371 cells.

As for `CNC(=O)c1ccc2c(c1)nc(-c1ccc(F)cc1O)n2[C@H]1CCC[C@@H](NC(=O)c2ccc(C#N)s2)C1` [Compound 188], the IC50 in assay [1] was 0.1 to 0.5 µM; against BCAT2, below 0.1 µM.

As to `CNC(=O)c1ccc2c(c1)nc(-c1ccccc1SC(F)(F)F)n2[C@H]1CCC[C@@H](NC(=O)c2ccc(Br)s2)C1` [Compound 128], the IC50 was at least 1 µM in assay [1], 0.5 to 1 µM against BCAT2 and at least 1 µM in the assay on GM00371 cells.

For `CNC(=O)c1ccc2c(c1)nc(-c1ccccn1)n2[C@@H]1CCC[C@H](NC(=O)c2ccc([N+](=O)[O-])s2)C1` [Compound 107], the IC50 is at least 1 µM in assay [1], 0.5 to 1 µM against BCAT2 and at least 1 µM in the assay with GM00371 cells.

Take `CNC(=O)c1ccc2c(c1)nc(-c1c(F)cccc1F)n2[C@H]1CCC[C@@H](NC(=O)c2ccc(C#N)s2)C1` [Compound 174]: the values for the IC50 (in assay [1]; against BCAT2; with GM00371 cells) were 0.1 to 0.5 µM, below 0.1 µM and 0.5 to 1 µM, respectively.

On to `CNC(=O)c1ccc2c(c1)nc(-c1cc(F)ccc1F)n2[C@H]1CCC[C@@H](NC(=O)c2ccc(Br)s2)C1` [Compound 175], for which the IC50 was below 0.1 µM in assay [1], below 0.1 µM against BCAT2 and 0.1 to 0.5 µM in the assay on GM00371 cells.

On to `CNC(=O)c1ccc2c(c1)nc(-c1ncccc1C#N)n2[C@H]1CCC[C@@H](NC(=O)c2ccc(C#N)s2)C1` [Compound 178], for which the IC50 was at least 1 µM in assay [1], below 0.1 µM on BCAT2 and at least 1 µM in the assay on GM00371 cells.

On to `CNC(=O)c1ccc2c(c1)nc(-c1ccccc1SC(F)(F)F)n2[C@H]1CCC[C@@H](NC(=O)c2ccc(C#N)s2)C1` [Compound 127], for which the IC50 was at least 1 µM in assay [1], 0.5 to 1 µM against BCAT2 and at least 1 µM with GM00371 cells.

In the case of `O=C(N[C@H]1CCC[C@@H](n2c(-c3ccccn3)nc3cc(C(F)(F)F)ccc32)C1)c1ccc(Br)s1` [Compound 140], the IC50 in assay [1] was 0.5 to 1 µM; on BCAT2, 0.1 to 0.5 µM; with GM00371 cells, 0.5 to 1 µM.

For the origin of these results see patent US20220274967A1, “BCAT MODULATION” (Icagen, LLC, priority 2019, published 2022).
